In patent US5208032A, “Increasing the growth of turkeys using implant of 19-nortestosterone” (Rutgers, The State University of New Jersey, priority 1992, dated 1993):

Experiments:
5-alpha-DHT anti-serum = test: Radioimmunoassay for 5-alpha-DHT: antiserum reaction and inhibition of binding; settings: standard curve
Description: The following will briefly outline the procedure used for determination of plasma concentration of 5-alpha-DHT. The 5-alpha-DHT anti-serum (Ford's-F/1) was kindly provided by Dr. Alan L. Johnson, Rutgers University, New Brunswick, N.J. This antibody reacted 100% to 5-alpha-DHT,7.9% to testosterone and 11.4% to androstenedione. The antibody was diluted to 1:20,000 in PBSG and stored at 4° C. until added to assay that same day.
5-alpha-Dihydrotestosterone was extracted from plasma ([…]) using benzene:toluene (2:1), with an extraction efficiency of 83.4±6.4 (SD) %. Since further purification of the crude sample extract (i.e., by column chromatography) was not performed, it became necessary to also add extracts from steroid free plasma (i.e., stripped by dextran-coated charcoal) to the standard curve tubes prior to the addition of the different doses of the standard 5-alpha-DHT solutions (3.125 to 1600 pg). […] Following the drying process (Savant-high speed concentrator), 200 microliters 5-alpha-DHT anti-serum solution wwere added to each standard or unknown. After brief vortex mixing, 200 microliters of [1,2,3,7^-3 H] 5-alpha-DHT (^~ 10,000 cpm) was added to each tube and the mixture allowed to incubate overnight at 4° C. The antibody-hormone-bound fraction was separated from the non-bound fraction using a charcoal-dextran suspension. Radioactivity of the bound fraction was measured using a liquid scintillation counter. The percentage bound of the standards was plotted against the log of the hormone concentration to yield a standard curve. Potency estimates of the unknowns were calculated from this standard curve.
Sensitivity of the assay was less than 50.0 pg/ml, while the mean within-assay CV for the low (37.7 pg/ml for plasma stripped and pooled from 3 adult male White Leghorn chickens) and high (265 pg/ml for plasma pooled and not stripped from 3 adult male White Leghorn chickens) plasma pools (n=5) wwas less than 9.4%. The mean between-assay CV for the low and high plasma pools was less than 12.9% (n=7).

testosterone antiserum = test: Radioimmunoassay for testosterone: antiserum cross-reaction and inhibition of binding; parameters: species or system rabbits; settings: standard curve
Description: Plasma concentrations of testosterone were assayed using component kits from Immuchem Corporation (Carson, Calif.) in which charcoal-stripped chicken plasma (free of testosterone) was used to make up the standards. The antibody is covalently bound to the inner surface of each polypropylene tube (testosterone-19-carboxymethylether-BSA was the antigen used to generate the antiserum in rabbits). To these tubes (at room temperature), a 50 microliter volume of either standard or unknown plasma as added directly without extraction. Following this, a 1000-microliter volume (^~ 40,000 cpm) of ^125 I-testosterone (purified by HPLC and radio-iodinated at position 19; Immuchem Corp.) in phosphosaline buffer-gelatin (pH 7.0) was added and the mixture was vortex mixed briefly. After a 2 hour incubation at room temperature, tubes were placed into styrofoam holding racks and the supernatant decanted onto tin trays lined with newspapers. Residual supernatant left on inside walls of tubes was removed by everting styrofoam holding racks and impacting them onto dry absorbent paper towels. At this point, the assay tubes, with their wall bound antibody-antigen complexes, were counted on a Beckman 5500 gamma counter to determine the radioactivity (^125 I-testosterone) which was antibody-bound. The plasma concentrations of testosterone in unknown samples were determine based on the standards (from 0.10-10 ng/ml) in charcoal-stripped chicken plasma included with each assay.
The Immuchem testosterone antiserum cross-reacts 100% with testosterone, 7.8% with 5-alpha-DHT, 0.56% with 4-adrosten-3,17-dione, and less than 0.01% with 5-alpha-androstane-3-alpha,17-beta-diol and estrogens (manufacturer statement). […] The mean between-assay CV for low and high plasma pools was less than 11.0% (n=5).

Compound | 80 percent inhibition of binding (5-alpha-DHT anti-serum; n=7) [pg/tube] | Twenty percent inhibition of binding (5-alpha-DHT anti-serum; n=7) [pg/tube] | 50 percent inhibition of binding (5-alpha-DHT anti-serum; n=7, 3.125 to 1600 pg) [pg/tube] | 80 percent inhibition of binding (testosterone antiserum; n=5) [pg/tube] | Twenty percent inhibition of binding (testosterone antiserum; n=5) [pg/tube] | 50 percent inhibition of binding (testosterone antiserum; n=5, 1.95 pg to 500 pg) [pg/tube]
C[C@]12CCC(=O)C[C@@H]1CC[C@@H]1[C@@H]2CC[C@]2(C)[C@@H](O)CC[C@@H]12 [5-alpha-DHT, 5-alpha-dihydrotestosterone] | 321.4±31.9 | 16.9±2.1 | 67.4±8.2 |  |  | 
C[C@]12CC[C@H]3[C@@H](CCC4=CC(=O)CC[C@@]43C)[C@@H]1CC[C@@H]2O [Testosterone, testosterone] |  |  |  | 462.5±1.5 | 15.8±1.7 | 78.8±9.6
